Where two headings read alike, the source gives them in different places.
Assays:
Type in all cases: biochemical
aggrecanase-1 = target: T1, aggrecanase-1 (Homo sapiens, UniProt O75173); assay: Aggrecanase-1 inhibitory action (Particle Assay, GAG release from aggrecan-containing polyacrylamide particles)
T1 sequence (O75173 213-837): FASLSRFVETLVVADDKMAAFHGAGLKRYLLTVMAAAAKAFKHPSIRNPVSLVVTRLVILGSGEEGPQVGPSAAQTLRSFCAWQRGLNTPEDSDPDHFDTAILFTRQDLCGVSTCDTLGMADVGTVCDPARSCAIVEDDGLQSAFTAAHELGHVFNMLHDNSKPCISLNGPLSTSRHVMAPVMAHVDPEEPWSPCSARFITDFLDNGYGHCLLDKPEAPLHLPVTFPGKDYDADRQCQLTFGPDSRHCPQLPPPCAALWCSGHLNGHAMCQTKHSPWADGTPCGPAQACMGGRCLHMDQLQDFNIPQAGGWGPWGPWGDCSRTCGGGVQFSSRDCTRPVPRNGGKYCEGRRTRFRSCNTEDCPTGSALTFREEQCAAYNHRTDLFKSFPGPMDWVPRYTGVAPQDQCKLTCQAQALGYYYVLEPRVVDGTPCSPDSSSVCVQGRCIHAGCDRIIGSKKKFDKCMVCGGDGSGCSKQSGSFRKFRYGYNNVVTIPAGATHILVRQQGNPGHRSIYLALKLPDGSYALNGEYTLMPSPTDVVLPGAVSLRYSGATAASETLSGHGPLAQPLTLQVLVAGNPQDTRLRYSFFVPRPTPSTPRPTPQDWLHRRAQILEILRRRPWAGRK
Procedure, shortened: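 Readout was dimethylmethylene blue absorbance (595 nm) of glycosaminoglycan liberated into supernatant, calibrated with whale chondroitin sulfate. Substrate was aggrecan in polyacrylamide particles, digested 15 h at 37° C in Tris-HCl; TC50 (μM) derived from inhibition relative to no-enzyme and no-inhibitor controls.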

MMP-1 = target: T2, MMP-1 (Homo sapiens, UniProt P03956); assay: MMP-1 inhibitory action (Type I collagen Activity Measurement kit, FITC-labeled collagen type I)
T2 sequence (P03956 100-469): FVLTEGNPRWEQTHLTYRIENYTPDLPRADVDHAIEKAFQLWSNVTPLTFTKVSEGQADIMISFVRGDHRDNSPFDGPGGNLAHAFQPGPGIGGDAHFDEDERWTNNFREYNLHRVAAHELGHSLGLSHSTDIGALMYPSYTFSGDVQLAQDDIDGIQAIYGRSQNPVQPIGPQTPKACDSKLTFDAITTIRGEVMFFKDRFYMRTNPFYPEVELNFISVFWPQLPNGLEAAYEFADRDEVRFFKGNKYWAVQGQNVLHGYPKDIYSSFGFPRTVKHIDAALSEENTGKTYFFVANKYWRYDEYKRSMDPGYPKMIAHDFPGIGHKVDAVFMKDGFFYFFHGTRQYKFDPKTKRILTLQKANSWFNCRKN

Recombinant Human MMP-13 = target: T3, Recombinant Human MMP-13 (Homo sapiens, UniProt P45452); assay: MMP-13 inhibitory activity (MMP-13 specific fluorescent substrate with quencher)
T3 construct: purchased R&D systems 511-MM
Procedure, shortened: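 IC50 (μM) derived from % inhibition, normalised to wells without enzyme and without inhibitor, fluorescence read at 325/405 nm. Enzyme and compound preceded addition of the quenched 7-MCA…DPA substrate; Tris-HCl buffer, 25 °C for 1 h, acetic-acid stop.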

[1] = Experimental Example 1, read-out: IC50 AG1
[2] = Experimental Example 2, read-out: IC50 MMP1
[3] = Experimental Example 3, read-out: IC50 MMP13
[4] = aggrecanase-1 inhibitory action, read-out: IC50 AG1 (Experimental Example 1)
[5] = MMP-1 inhibitory action, FITC-labeled collagen type I, 37° C. for 3 hr, read-out: IC50 MMP1 (Experimental Example 2)
[6] = Recombinant Human MMP-13, fluorescent substrate, 25° C. for 1 h, read-out: IC50 MMP13 (Experimental Example 3)

Row | IC50 (aggrecanase-1; [1]) [nM] | IC50 (MMP-1; [2]) [nM] | IC50 (Recombinant Human MMP-13; [3]) [nM] | IC50 (aggrecanase-1; [4]) [nM] | IC50 (MMP-1; [5]) [nM] | IC50 (Recombinant Human MMP-13; [6]) [nM] | Compound
1 | < 1000 | ≥ 1000 | < 100 |  |  |  | CC1[C@H](c2ccccc2)[C@]1(NS(=O)(=O)N1CCN(c2ccc(C(F)(F)F)cc2)CC1)C(=O)O (stereo partly drawn) [Example 2-428]
2 |  |  |  | < 100 | ≥ 1000 | < 100 | O=C(CCc1cccc(C2CC2(NS(=O)(=O)c2ccc(-c3ccc(Cl)cc3)s2)C(=O)O)c1)N1CCC(O)CC1 (stereo not drawn) [Example 2-224]
3 |  |  |  | < 1000 | ≥ 1000 | < 100 | O=C(O)[C@]1(NS(=O)(=O)c2ccc3c(c2)Cc2cc(F)ccc2-3)C[C@@H]1c1ccccc1 [Example 2-141]
4 |  |  |  | < 100 | ≥ 1000 | < 1000 | O=C(O)C1(NS(=O)(=O)c2ccc(-c3cc(C(F)(F)F)on3)s2)CC1c1ccccc1CCCO (stereo not drawn) [Example 2-252]
5 | < 1000 | ≥ 1000 | ≥ 1000 |  |  |  | C[C@]1(c2ccccc2)C[C@@]1(NS(=O)(=O)c1ccc(-c2ncc(F)cc2F)s1)C(=O)O [Example 2-466]
6 |  |  |  | ≥ 10000 | ≥ 10000 | < 1000 | O=C(O)[C@]1(NS(=O)(=O)c2ccc(-c3cccc(C(F)(F)F)c3)s2)C[C@@H]1c1ccccc1 [Example 2-134]
7 | < 100 | < 100 | < 100 |  |  |  | COc1cnn(-c2ccc(S(=O)(=O)N[C@@]3(C(=O)O)C(C)[C@@H]3c3ccccc3)s2)c1 (stereo partly drawn) [Example 2-492]
8 | < 1000 | ≥ 1000 | < 1000 |  |  |  | CC1[C@H](c2ccccc2)[C@]1(NS(=O)(=O)c1ccc(-n2ccc(C(F)(F)F)n2)s1)C(=O)O (stereo partly drawn) [Example 2-514]
9 | < 100 | < 1000 | < 100 |  |  |  | O=C(O)C1(NS(=O)(=O)c2ccc(-c3cc(C(F)(F)F)on3)s2)C2CCC(O)c3ccccc3C21 (stereo not drawn) [Example 2-438]
10 | < 100 | ≥ 1000 | < 100 |  |  |  | CC1[C@H](c2ccccc2)[C@]1(NS(=O)(=O)c1ccc(-c2ccc3nsnc3c2)s1)C(=O)O (stereo partly drawn) [Example 2-497]
11 | < 1000 | ≥ 1000 | < 1000 |  |  |  | Cc1cc(C2CC2(NS(=O)(=O)c2ccc(-c3cc(C(F)(F)F)on3)s2)C(=O)O)on1 (stereo not drawn) [Example 2-311]
12 | ≥ 1000 | ≥ 10000 | ≥ 10000 |  |  |  | CCOC(=O)c1cccc(-c2ccc(S(=O)(=O)N[C@@]3(C(=O)O)C[C@]3(C)c3ccccc3)s2)c1 [Example 2-478]
13 |  |  |  | ≥ 10000 | ≥ 10000 | ≥ 1000 | O=C(O)[C@]1(NS(=O)(=O)/C=C/c2cccc(Cl)c2)C[C@@H]1c1ccccc1 [Example 2-153]
14 |  |  |  | ≥ 10000 | ≥ 10000 | ≥ 10000 | O=C(c1ccc(Cl)cc1)N1CCN(S(=O)(=O)NC2(C(=O)O)CC2c2ccccc2)CC1 (stereo not drawn) [Example 2-159]
15 |  |  |  | ≥ 1000 | ≥ 1000 | ≥ 1000 | CC1[C@H](c2ccccc2)[C@]1(NS(=O)(=O)N1CCN(C(=O)Nc2ccccc2)CC1)C(=O)O (stereo partly drawn) [Example 2-11, (1S,2R,3R)-2-methyl-3-phenyl-1-(4-phenylcarbamoyl-piperazine-1-sulfamoylamino)-cyclopropanecarboxylic acid]
16 | < 100 | < 1000 | < 100 |  |  |  | CC1[C@H](c2ccccc2)[C@]1(NS(=O)(=O)c1ccc(-n2cc(C(F)(F)F)cn2)s1)C(=O)O (stereo partly drawn) [Example 2-577]
17 |  |  |  | < 1000 | ≥ 10000 | < 1000 | O=C(O)C1(NS(=O)(=O)c2ccc(-c3ccc(Cl)cc3)s2)CC1c1ccccc1OCc1ccccc1 (stereo not drawn) [Example 1-84]
18 | ≥ 1000 | ≥ 1000 | < 100 |  |  |  | COc1ccc(-c2ccc(S(=O)(=O)N[C@@]3(C(=O)O)C[C@]3(C)c3ccccc3)s2)cc1Cl [Example 2-595]
19 |  |  |  | < 1000 | ≥ 1000 | < 100 | COCc1cc(-c2ccc(S(=O)(=O)N[C@@]3(C(=O)O)C[C@@H]3c3ccccc3)s2)no1 [Example 2-110]
20 | ≥ 1000 | ≥ 1000 | ≥ 1000 |  |  |  | C[C@]1(c2ccccc2)C[C@@]1(NS(=O)(=O)c1ccc(-c2ccncc2)s1)C(=O)O [Example 2-526]

Row | IC50 (aggrecanase-1; [1]) [nM] | IC50 (MMP-1; [2]) [nM] | IC50 (Recombinant Human MMP-13; [3]) [nM] | IC50 (aggrecanase-1; [4]) [nM] | IC50 (MMP-1; [5]) [nM] | IC50 (Recombinant Human MMP-13; [6]) [nM] | Compound
21 |  |  |  | < 1000 | ≥ 10000 | < 1000 | O=C(Cc1ccccc1C1CC1(NS(=O)(=O)c1ccc(-c2ccc(Cl)cc2)s1)C(=O)O)N1CCOCC1 (stereo not drawn) [Example 2-194]
22 |  |  |  | < 1000 | ≥ 10000 | < 1000 | Cc1ccc(-c2ccccc2C2CC2(NS(=O)(=O)c2ccc(-c3ccc(Cl)cc3)s2)C(=O)O)cc1 (stereo not drawn) [Example 2-40]
23 | ≥ 1000 | ≥ 1000 | ≥ 1000 |  |  |  | CC1[C@H](c2ccccc2)[C@]1(NS(=O)(=O)N1CCN(CCc2ccccc2)CC1)C(=O)O (stereo partly drawn) [Example 2-531]
24 |  |  |  | < 1000 | ≥ 10000 | < 100 | O=C(O)C1(NS(=O)(=O)c2ccc(-c3ccc(Cl)cc3)s2)CC1c1ccc(Br)cc1 (stereo not drawn) [Example 2-203]
25 | < 100 | < 1000 | < 100 |  |  |  | CC1[C@H](c2ccccc2)[C@]1(NS(=O)(=O)c1ccc(-c2ccc(Cl)c(N)c2)s1)C(=O)O (stereo partly drawn) [Example 2-496]
26 | < 1000 | ≥ 1000 | < 100 |  |  |  | CC(=O)c1ccc(-c2ccc(S(=O)(=O)N[C@@]3(C(=O)O)C[C@]3(C)c3ccccc3)s2)cc1 [Example 2-573]
27 |  |  |  | < 1000 | ≥ 10000 | < 100 | CN1CCN(C(=O)CCc2cccc(C3CC3(NS(=O)(=O)c3ccc(-c4ccc(Cl)cc4)s3)C(=O)O)c2)CC1 (stereo not drawn) [Example 2-210]
28 |  |  |  | < 1000 | ≥ 10000 | < 1000 | O=C(Nc1cccc(C2CC2(NS(=O)(=O)c2ccc(-c3ccc(Cl)cc3)s2)C(=O)O)c1)N1CCOCC1 (stereo not drawn) [Example 2-251]
29 | < 100 | < 1000 | < 100 |  |  |  | COCC1C(c2ccccc2)C1(NS(=O)(=O)c1ccc(-c2cc(C(F)(F)F)on2)s1)C(=O)O (stereo not drawn) [Example 2-539]
30 | ≥ 1000 | ≥ 1000 | < 1000 |  |  |  | Cn1cc(-c2ccc(S(=O)(=O)N[C@@]3(C(=O)O)C[C@]3(C)c3ccccc3)s2)nn1 [Example 2-587]
31 | < 100 | < 1000 | < 1000 |  |  |  | C[C@]1(c2cccc(F)c2)C[C@@]1(NS(=O)(=O)c1ccc(-c2cc(C(F)(F)F)on2)s1)C(=O)O [Example 2-618]
32 | ≥ 1000 | ≥ 10000 | < 1000 |  |  |  | Cc1cnc(N2CCN(S(=O)(=O)N[C@@]3(C(=O)O)C(C)[C@@H]3c3ccccc3)CC2)s1 (stereo partly drawn) [Example 2-484]
33 | < 100 | ≥ 1000 | < 1000 |  |  |  | C[C@]1(c2ccccc2)C[C@@]1(NS(=O)(=O)c1ccc(-c2ccc(C#N)cc2)s1)C(=O)O [Example 2-567]
34 | ≥ 10000 | < 1000 | ≥ 1000 |  |  |  | CC1[C@H](c2ccccc2)[C@]1(NS(=O)(=O)c1ccc(Br)s1)C(=O)O (stereo partly drawn) [Example 2-427]
35 | < 1000 | ≥ 1000 | < 100 |  |  |  | CC1[C@H](c2ccccc2)[C@]1(NS(=O)(=O)c1ccc(-n2cccn2)s1)C(=O)O (stereo partly drawn) [Example 2-542]
36 | ≥ 1000 | ≥ 1000 | < 100 |  |  |  | CC1[C@H](c2ccccc2)[C@]1(NS(=O)(=O)c1ccc(-n2cc(C(F)(F)F)cn2)nc1)C(=O)O (stereo partly drawn) [Example 2-556]
37 | < 100 | ≥ 10000 | < 1000 |  |  |  | O=C(O)C1(NS(=O)(=O)c2ccc(-c3ccc(Cl)cc3)s2)CC1(COCCO)c1ccccc1 (stereo not drawn) [Example 2-347]
38 |  |  |  | < 100 | ≥ 1000 | < 100 | O=C(Cc1cccc(C2CC2(NS(=O)(=O)c2ccc(-c3cc(C(F)(F)F)on3)s2)C(=O)O)c1)N1CCOCC1 (stereo not drawn) [Example 2-220]
39 |  |  |  | < 100 | ≥ 1000 | < 100 | O=C(Cc1cccc(C2CC2(NS(=O)(=O)c2ccc(-c3ccc(Cl)cc3)s2)C(=O)O)c1)N1CCOCC1 (stereo not drawn) [Example 2-190]
